Values of other authors in article PMC10855781 (International Journal of Molecular Sciences, 2024).
Read-outs that look alike come from different tables or passages of the source.

Columns and labels:
DNA = conditions: apparent equilibrium binding constant; ref [72]
From the text: Figure 2 The equilibrium binding constants of daunomycin (Dau) and its oxime-linked amino acid derivatives to DNA. TEXT PRINTED IN THE PICTURE: Dau: K (x10^5)(M^−1): 11.7 | H-Lys(Dau=Aoa-OH): K (x10^5)(M^−1): 6.8 | Dau=Aoa-Gly-OH: K (x10^5)(M^−1): 6.74 | Dau=Aoa-Tyr-OH: K (x10^5)(M^−1): 4.4 | Dau=Aoa-Leu-OH: K (x10^5)(M^−1): 3.23

[1] = tested on: human colorectal adenocarcinoma (HT-29); conditions: Table 2; ref [75]
From the text: Table 2 Comparative study of cytotoxic effects and cardiotoxicity elicited by selected GnRH-based anthracycline conjugates. || Table 3 In vivo tumor growth inhibition of a few relevant Dau-GnRH-III conjugates. | column: Cytostatic Effect (IC50: μM) on HT-29 cells

C26 colon tumor = conditions: (w) tumor weight reduction, day 13; treatments days 4 and 7; conjugates 26.6 μmol/kg (15 mg Dau content), Dau 2 mg/kg; ref [82],[86]
Experimental: Table 3 In vivo tumor growth inhibition of a few relevant Dau-GnRH-III conjugates. | column: C26 orth. […] In the case of the C26 colon tumor-bearing female Balb/c mice, only a 7% reduction in tumor weight was detected on day 13 after the two treatments on days 4 and 7 with [^8Lys(Dau=Aoa)]-GnRH-III, at a 26.6 μmol/kg (15 mg Dau content) dose. […] It is worth ment ...

HT-29 human colon cancer [2] = conditions: SCID mice, single i.p. 2.5 mg/kg (4.43 μmol); ref [81]
Experimental: Table 3 In vivo tumor growth inhibition of a few relevant Dau-GnRH-III conjugates. | column: HT-29 ^b s.c. SCID [%] || In another experiment, HT-29 human colon cancer was developed s.c. in immunodeficient SCID mice. Dau and two conjugates (with or without a GFLG spacer between the GnRH-III homing peptide and the payload) were used for the treatment. The first i.p. administrations were performed on day 13 after tumor inoculation. All the mice treated once with 2.5 mg/kg body weight (4.43 μmol) free Dau died within 10 days. In contrast, the conjugates at a dose of 15 mg Dau content/kg body weight (26.6 μmol) that refers to 52 mg/kg [^8Lys(Dau=Aoa)]-GnRH-III and 62.5 mg/kg [^8Lys(Dau=Aoa-GFLG)]-GnRH-III co ...

mice = tested on: mice
From the text: The most widely studied oxime-linked daunomycin–peptide conjugates were GnRH-III-based derivatives. GnRH-III (<[…]-NH2, where <E is pyroglutamic acid) was first isolated from sea lamprey and has a very low-level hormonal effect in mammals, but binds to both the human GnRH receptors (GnRH-IR and GnRH-IIR). […] Nevertheless, the results of the in vivo acute and chronic toxicity measureme ...

[3] = tested on: human breast adenocarcinoma (MCF-7); conditions: ref [75]
From the text: Table 2 Comparative study of cytotoxic effects and cardiotoxicity elicited by selected GnRH-based anthracycline conjugates. | column: IC50 Values (μM)

HT-29 human colon cancer [4] = conditions: ref [82]
From the text: Table 3 In vivo tumor growth inhibition of a few relevant Dau-GnRH-III conjugates. | column: HT-29 orth. SCID [%] || Starting from these promising results, Dau conjugates with further GnRH-III derivatives using different short-chain fatty acids (on the side chains of Lys in position 4) were developed. […] The experiment finished on day 30, but the animals in the group treated with Dau had to be sacrificed on day 23. […] However, these numbers cannot be directly compared because the termination days were different during the experiment. The toxicities of the compound ...

C26 murine colon cancer = conditions: ref [20]
Experimental: Table 3 In vivo tumor growth inhibition of a few relevant Dau-GnRH-III conjugates. | column: C26 ^a s.c. Balb/c [%] || In our experiments, GnRH-III was applied as a targeting peptide. […] The effect highly depended on the treatment schedule. In the first attempt, the conjugate was administered i.p. at a dose of 8.86 μmol (5 mg Dau-content/kg body weight) five times on days 7, 9, 11, 14 and 16 after tumor transplantation ...

PANC-1 tumor = conditions: ref [110]
Experimental: The in vivo tumor growth inhibitory effect of the conjugate and free Dau was investigated on s.c.-developed PANC-1 tumor-bearing SCID female mice. The free drug was applied once a week at a maximum tolerated dose of 1 mg/kg body weight (three treatments), while the conjugate was administered, on average, three times per a week either at a 2 mg/kg or 10 mg/kg dose, calculated as per the Dau content (eighteen treatments altogether). The first treatment was given on day 10 after tumor inoculation. After the third treatment with free Dau, the animals lost 20% of their weight; therefore, the mice i ...

[5] = tested on: Human cardiac myocytes (HCM); set-up: key: 0: no cardiotoxicity; +: weak; ++: moderate; +++: strong cardiotoxicity; conditions: long-term (0–72 h) cytotoxic effect, impedimetric; ref [75]
From the text: Table 2 Comparative study of cytotoxic effects and cardiotoxicity elicited by selected GnRH-based anthracycline conjugates. | column: Cardiotoxicity || The main drug-related toxic side effect of anthracyclines is cardiotoxicity, leading to cardiomyopathy and heart failure. Comparative experiments to determine the cardiotoxicity of peptide–anthracycline conjugates with different linkages might be informative for the other conjugates with different types of drugs as well. For this purpose, human cardiomyocytes (HCM) and human umbilical vein endothelial cells (HUVEC) were used as models. The long-term (0–72 h) cytotoxic effect of sixteen GnRH-based conjugates containing Dox and Dau was determined by real-time impedimetric sensing using th ...

COc1cccc2c1C(=O)c1c(O)c3c(c(O)c1C2=O)C[C@@](O)(C(C)=O)C[C@@H]3O[C@H]1C[C@H](N)[C@H](O)[C@H](C)O1 [Dau, daunomycin]
K, equilibrium binding constant to DNA (DNA): 1.17e+06 M⁻¹
IC50 [1]: 300 ± 200 nM
C26 orth. Balb/c tumor growth inhibition (w) (C26 colon tumor): 24.4%
time within which all treated mice died (HT-29 human colon cancer [2]): ≤ 10 days
dose with remarkable toxicity (mice; healthy mice): > 2 mg/kg
dose with remarkable toxicity (mice; immunodeficient mice): > 1 mg/kg
IC50 [3]: 400 ± 100 nM
relative liver weight loss in comparison with the controls (HT-29 human colon cancer [4]; Dau 1 mg/kg i.v. weekly for 7 weeks): 11%
tumor weight reduction (HT-29 human colon cancer [4]; conjugates 17.72 μmol (10 mg Dau content)/kg s.c. x7, end day 30, Dau 1 mg/kg days 7, 13, 20, sacrificed day 23): 84.3%
reduction in tumor weight (HT-29 human colon cancer [4]; conjugates 15 mg Dau content/kg i.v. x5 from day 5, then 7.5 mg i.p. x8, twice a week, Dau 1 mg/kg i.v. weekly for 7 weeks): 29.7%
proliferation index compared to the controls (HT-29 human colon cancer [4]; same experiment as E44, average): 98.6%
vascularization rate compared to the controls (HT-29 human colon cancer [4]; same experiment as E44): 112.5%
rate of changes in the liver and body weights (HT-29 human colon cancer [4]; same experiment as E49): 70.6%
tumor volume inhibition (C26 murine colon cancer; free Dau 2 mg/kg (3.55 μmol) days 7, 9, 11, 14, 16, day 26): 22.6%
median survival rate in comparison to the control group (C26 murine colon cancer; free Dau 2 mg/kg days 7, 9, 11, 14, 16): 0.81
decrease in liver weight (PANC-1 tumor; Dau 1 mg/kg once a week, three treatments): 29.1%
body weight loss (PANC-1 tumor; after third treatment, 1 mg/kg once a week, sacrificed day 28): 20%
Cardiotoxicity, HCM [5]: +++
